Results taken from paper PMC6225123, “Optimization of Aminoimidazole Derivatives as Src Family Kinase Inhibitors” (Molecules : A Journal of Synthetic Chemistry and Natural …, 2018).
Read-outs that look alike come from different tables or passages of the source.

What was measured:
[1] = tested on: SH-SY5Y neuroblastoma cell line; set-up: method as in PMID 26514807; conditions: previous work; cited from earlier work
[2] = tested on: K562 CML cell line; set-up: method as in PMID 26514807; conditions: previous work; cited from earlier work
[3] = target: active human recombinant Src (Homo sapiens, UniProt P12931); assay: Z'-LYTE kinase assay (FRET), primary screen; type: biochemical; conditions: isolated enzyme, mean ± SD of two independent experiments
Chain of active human recombinant Src (P12931 whole entry): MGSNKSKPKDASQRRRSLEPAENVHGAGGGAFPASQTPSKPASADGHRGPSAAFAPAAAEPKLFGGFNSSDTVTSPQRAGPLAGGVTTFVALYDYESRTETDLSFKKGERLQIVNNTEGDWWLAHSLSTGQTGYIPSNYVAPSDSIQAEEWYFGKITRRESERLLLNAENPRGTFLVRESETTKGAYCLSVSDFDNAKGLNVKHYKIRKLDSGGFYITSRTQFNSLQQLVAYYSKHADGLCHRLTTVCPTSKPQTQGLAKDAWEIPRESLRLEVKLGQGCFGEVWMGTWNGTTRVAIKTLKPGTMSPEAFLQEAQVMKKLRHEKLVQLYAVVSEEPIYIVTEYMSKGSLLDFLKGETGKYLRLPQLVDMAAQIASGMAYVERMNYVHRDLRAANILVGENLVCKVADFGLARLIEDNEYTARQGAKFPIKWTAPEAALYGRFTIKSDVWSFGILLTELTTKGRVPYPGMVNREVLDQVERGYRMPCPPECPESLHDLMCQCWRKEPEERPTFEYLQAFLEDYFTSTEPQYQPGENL
Method: (§3) Enzymatic assays to determine the kinase inhibitory activity of NCEs were performed using an automatic liquid-handling device (Microlab STAR Hamilton) and Z’-LYTE Kinase Assay Platform, a fluorescence resonance energy transfer (FRET)-based assay platform compatible with high-throughput screening (HTS) applications. […] The assay procedure was carried out according to the supplier’s indications. […] Final results have been expressed as percent inhibition, and IC50 values were calculated by non-linear curve fitting using GraphPad Prism software (version 6 for Windows). The inter-experimental variability of IC50 values resulted within accepted limits of ±0.5 log units.

[4] = target: T1, Fyn (Homo sapiens, UniProt P06241); assay: Z'-LYTE kinase assay (FRET), SFK profiling; type: biochemical; conditions: isolated enzyme, mean ± SD of two independent experiments
T1 construct: (Fyn, LynA, and Yes1, all human recombinant full-length proteins)
T1 sequence (P06241 whole entry): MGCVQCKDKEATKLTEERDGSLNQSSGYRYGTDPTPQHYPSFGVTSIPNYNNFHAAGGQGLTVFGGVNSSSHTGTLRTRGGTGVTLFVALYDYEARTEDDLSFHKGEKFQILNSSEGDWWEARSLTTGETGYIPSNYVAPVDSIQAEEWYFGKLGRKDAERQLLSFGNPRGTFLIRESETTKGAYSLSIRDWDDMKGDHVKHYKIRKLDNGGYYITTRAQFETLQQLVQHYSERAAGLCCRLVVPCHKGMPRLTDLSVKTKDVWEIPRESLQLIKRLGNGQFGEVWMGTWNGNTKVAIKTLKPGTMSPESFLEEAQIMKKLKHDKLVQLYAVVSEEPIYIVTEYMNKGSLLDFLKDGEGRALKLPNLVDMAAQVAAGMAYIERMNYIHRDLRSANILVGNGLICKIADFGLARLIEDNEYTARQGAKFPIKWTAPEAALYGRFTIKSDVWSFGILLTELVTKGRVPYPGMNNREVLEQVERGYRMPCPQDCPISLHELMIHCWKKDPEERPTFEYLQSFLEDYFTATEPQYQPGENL
Method: as §3

[5] = target: T2, LynA (Homo sapiens, UniProt P07948); assay: Z'-LYTE kinase assay (FRET), SFK profiling; type: biochemical; conditions: isolated enzyme, mean ± SD of two independent experiments; read-out: Lyn IC50
T2 construct: (Fyn, LynA, and Yes1, all human recombinant full-length proteins)
T2 sequence (P07948 whole entry): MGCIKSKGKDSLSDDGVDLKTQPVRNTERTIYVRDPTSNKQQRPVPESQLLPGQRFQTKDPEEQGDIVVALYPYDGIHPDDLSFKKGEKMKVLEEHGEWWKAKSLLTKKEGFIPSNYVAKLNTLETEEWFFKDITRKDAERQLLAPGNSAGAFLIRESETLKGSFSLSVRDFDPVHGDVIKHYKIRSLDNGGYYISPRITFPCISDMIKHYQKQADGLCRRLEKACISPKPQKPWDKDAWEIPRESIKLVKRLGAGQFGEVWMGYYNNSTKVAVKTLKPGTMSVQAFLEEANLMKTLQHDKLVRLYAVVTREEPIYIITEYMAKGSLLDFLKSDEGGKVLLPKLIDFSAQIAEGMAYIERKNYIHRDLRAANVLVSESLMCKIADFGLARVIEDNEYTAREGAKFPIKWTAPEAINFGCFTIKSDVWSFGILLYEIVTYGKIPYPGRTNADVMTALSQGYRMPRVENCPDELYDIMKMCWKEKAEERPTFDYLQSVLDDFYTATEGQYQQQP
Method: as §3

[6] = target: T3, Yes1 (Homo sapiens, UniProt P07947); assay: Z'-LYTE kinase assay (FRET), SFK profiling; type: biochemical; conditions: isolated enzyme, mean ± SD of two independent experiments; read-out: Yes IC50
T3 construct: (Fyn, LynA, and Yes1, all human recombinant full-length proteins)
T3 sequence (P07947 whole entry): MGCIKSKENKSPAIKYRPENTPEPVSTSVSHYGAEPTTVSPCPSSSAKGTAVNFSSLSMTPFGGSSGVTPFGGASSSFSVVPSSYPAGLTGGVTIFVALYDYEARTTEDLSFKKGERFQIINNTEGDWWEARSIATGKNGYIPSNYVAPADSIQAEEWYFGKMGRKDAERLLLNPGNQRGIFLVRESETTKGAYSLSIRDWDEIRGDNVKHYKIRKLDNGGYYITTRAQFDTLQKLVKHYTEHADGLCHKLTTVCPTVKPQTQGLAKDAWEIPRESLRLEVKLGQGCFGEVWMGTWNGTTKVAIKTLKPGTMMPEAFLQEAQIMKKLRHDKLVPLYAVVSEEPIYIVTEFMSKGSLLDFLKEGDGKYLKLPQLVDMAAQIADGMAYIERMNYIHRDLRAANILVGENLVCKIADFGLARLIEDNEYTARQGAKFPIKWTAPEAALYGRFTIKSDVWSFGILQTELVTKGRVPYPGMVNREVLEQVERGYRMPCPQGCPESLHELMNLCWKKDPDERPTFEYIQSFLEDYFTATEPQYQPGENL
Method: as §3

[7] = tested on: SH-SY5Y neuroblastoma cell line; assay: Antiproliferative assay, viable cell count after 72 h; type: cell-based, human; conditions: for increased activity compared to the hit compound 2 on SH-SY5Y cells: 72 h, ratio of IC50 values; for IC50: Homo sapiens, 72 h incubation, read-out: IC50 antiproliferative activity on SH-SY5Y cells
Method: (§1) Starting from these promising results in enzymatic assays, we decided to test NCEs 4 on K562 CML and SH-SY5Y NB cell lines, to evaluate if they are endowed with an increased antiproliferative activity compared with the hit compound 2. A hyperactivation of SFKs has been detected in both K562 and SH-SY5Y cell lines. Cells were treated with increasing concentrations of compounds and cell proliferation was measured by counting viable cells after 72 h of incubation. […] The activity of these compounds could be due not only to Src inhibition, but also to their effect on Fyn and Lyn, both involved in NB development.
(§2) In vitro experiments were carried out using human neuroblastoma cell line SH-SY5Y, human glioblastoma cell line U-87, and human erythroleukemia cell line K-562. Cell lines were obtained from American Tissue Culture Collection (ATCC, SH-SY5Y CRL-2266; U-87 HTB-14; K-562 CCL-243). K-562 cells were cultured in RPMI medium with 10% FCS. SH-SY5Y and U-87 cells were cultured in DMEM medium with 10% FCS. In order to determine antiproliferative effect of NCE compounds cells were seeded at density of 5 × 10^4 cells/mL (K-562) or 10 × 10^4 cells/cm^2 (SH-SY5Y, U-87) and treated with increasing concentrations of NCE compounds. Control cells were treated with the vehicle of the experimental point containing the highest percentage of DMSO. Cell cultures were maintained at 37 °C in 5% v/v CO2 for 72 h. Cell number and vitality were evaluated on cell suspension using the automatic cell counter NucleoCounter® (Chemometec, Denmark). Results from the NucleoCounter represented either total or non-viable cell concentration, depending on the sample preparation indicated by the manufacturer. Each experiment was performed at least three times and results were expressed as mean and standard deviation.

[8] = tested on: K562 CML cell line; assay: as above; type: cell-based; conditions: Homo sapiens; K562, 72 h incubation; read-out: IC50 antiproliferative activity on K562 cells
Method: as §1
In vitro experiments were carried out using human neuroblastoma cell line SH-SY5Y, human glioblastoma cell line U-87, and human erythroleukemia cell line K-562. Cell lines were obtained from American Tissue Culture Collection (ATCC, SH-SY5Y CRL-2266; U-87 HTB-14; K-562 CCL-243). K-562 cells were cultured in RPMI medium with 10% FCS. SH-SY5Y and U-87 cells were cultured in DMEM medium with 10% FCS. […] Cell number and vitality were evaluated on cell suspension using the automatic cell counter NucleoCounter® (Chemometec, Denmark). […] Each experiment was performed at least three times and results were expressed as mean and standard deviation.

[9] = tested on: U87 glioblastoma multiforme cells; assay: as above; type: cell-based; conditions: Homo sapiens; U87, 72 h incubation
Method: A possible explanation could be the multidrug resistance mechanisms that GBM cells usually carry: an example is the overexpression of membrane channels (ABCB1) that are able to pump different kind of drugs out of the cells. In Supplementary Materials, Figure S1, the activity of other NCEs on U87 GBM cell line are reported.
as §2, with “Results from the NucleoCounter represented either total or non-viable cell concentration, depending on the sample preparation indicated by the manufacturer.” left out

[10] = tested on: Jak2; set-up: method as in PMID 24359159; conditions: cited from earlier work

Row | Structure (SMILES) | IC50 [3] [nM] | IC50 [4] [nM] | IC50 [5] [nM] | IC50 [6] [nM] | melting point [°C] | IC50 [7] [nM] | IC50 [8] [nM] | IC50 [9] [nM] | IC50 [1] [nM] | IC50 [2] [nM] | increased activity compared to the hit compound 2 on SH-SY5Y cells [7] | IC50 [10] [nM]
1 | Cc1nc(Nc2cn(CCc3ccccc3)cn2)cc(N2CCN(CCO)CC2)n1 [compound 2] | – | – | – | – | – | – | – | – | 25000 | > 25000 | – | –
2 | COc1ccccc1CCn1cnc(Nc2cc(N3CCN(CC(N)=O)CC3)nc(C)n2)c1 [4d, 2-{4-[6-({1-[2-(2-Methoxyphenyl)ethyl]-1H-imidazol-4-yl}amino)-2-methylpyrimidin-4-yl]piperazin-1-yl}acetamide] | 1530 ± 44 | 1390 ± 93 | 1200 ± 189 | – | – | – | – | – | – | – | – | –
3 | COc1cccc(CCn2cnc(Nc3cc(N4CCN(CCO)CC4)nc(C)n3)c2)c1 [4a, 2-{4-[6-({1-[2-(3-Methoxyphenyl)ethyl]-1H-imidazol-4-yl}amino)-2-methylpyrimidin-4-yl]piperazin-1-yl}ethanol] | 260 ± 23 | 146 ± 30 | 451 ± 13 | 560 ± 40 | – | – | – | – | – | – | – | –
4 | Cc1cc(Nc2nc(N[C@@H](C)c3ncc(F)cn3)ncc2Cl)n[nH]1 [AZD1480] | – | – | – | – | – | – | – | – | – | – | – | 58
5 | COc1cccc(CCn2cnc(Nc3cc(N4CCN(CC(N)=O)CC4)nc(C)n3)c2)c1 [4b, 2-{4-[6-({1-[2-(3-Methoxyphenyl)ethyl]-1H-imidazol-4-yl}amino)-2-methylpyrimidin-4-yl]piperazin-1-yl}acetamide] | 1480 ± 185 | 1450 ± 768 | 1810 ± 307 | 1840 ± 812 | 198 to 200 | – | – | – | – | – | – | –
6 | COc1ccccc1CCn1cnc(Nc2cc(N3CCN(CCO)CC3)nc(C)n2)c1 [4c, 2-{4-[6-({1-[2-(2-Methoxyphenyl)ethyl]-1H-imidazol-4-yl}amino)-2-methylpyrimidin-4-yl]piperazin-1-yl}ethanol] | 225 ± 8 | 439 ± 45 | 145 ± 31 | 55 ± 9 | – | – | – | – | – | – | – | –

Continued, in another order:

Row | IC50 [3] [nM] | IC50 [4] [nM] | IC50 [5] [nM] | IC50 [6] [nM] | melting point [°C] | IC50 [7] [nM] | IC50 [8] [nM] | IC50 [9] [nM] | Structure (SMILES) | IC50 [1] [nM] | IC50 [2] [nM] | increased activity compared to the hit compound 2 on SH-SY5Y cells [7] | IC50 [10] [nM]
7 | 56 ± 5 | 50 ± 4 | 51 ± 3 | 3 ± 1 | 193 to 196 | – | – | – | Cc1nc(Nc2cn(CCc3ccccc3O)cn2)cc(N2CCNCC2)n1 [4f, 2-(2-{4-[(2-Methyl-6-piperazin-1-ylpyrimidin-4-yl)amino]-1H-imidazol-1-yl}ethyl)phenol] | – | – | – | –
8 | 50 ± 3 | 14 ± 1.5 | 26 ± 3 | 7 ± 0.35 | 127 to 130 | 7800 | 18900 | 13300 | Cc1nc(Nc2cn(CCc3cccc(O)c3)cn2)cc(N2CCN(C(=O)OC(C)(C)C)CC2)n1 [4l, tert-Butyl4-[6-({1-[2-(3-hydroxyphenyl)ethyl]-1H-imidazol-4-yl}amino)-2-methylpyrimidin-4-yl]piperazine-1-carboxylate] | – | – | more than 2 fold | –
9 | 83 ± 18 | 10 ± 0.4 | 27 ± 1 | 3 ± 0.8 | 193 to 196 | – | – | – | Cc1nc(Nc2cn(CCc3cccc(O)c3)cn2)cc(N2CCNCC2)n1 [4i, 3-(2-{4-[(2-Methyl-6-piperazin-1-ylpyrimidin-4-yl)amino]-1H-imidazol-1-yl}ethyl)phenol] | – | – | – | –
10 | 40 ± 5 | 40 ± 5 | 19 ± 2 | 15 ± 4 | 160 to 163 | – | – | – | Cc1nc(Nc2cn(CCc3ccccc3O)cn2)cc(N2CCN(CC(N)=O)CC2)n1 [4g, 2-{4-[6-({1-[2-(2-Hydroxyphenyl)ethyl]-1H-imidazol-4-yl}amino)-2-methylpyrimidin-4-yl]piperazin-1-yl}acetamide] | – | – | – | –
11 | 40 ± 3 | 12 ± 2 | 10 ± 1.2 | 3 ± 0.7 | – | – | – | – | Cc1nc(Nc2cn(CCc3cccc(O)c3)cn2)cc(N2CCN(CC(N)=O)CC2)n1 [4j, 2-{4-[6-({1-[2-(3-Hydroxyphenyl)ethyl]-1H-imidazol-4-yl}amino)-2-methylpyrimidin-4-yl]piperazin-1-yl}acetamide] | – | – | – | –
12 | 59 ± 5 | 73 ± 5 | 17 ± 0.54 | 11 ± 0.6 | – | – | – | – | Cc1nc(Nc2cn(CCc3ccccc3O)cn2)cc(N2CCN(CCO)CC2)n1 [4e, 2-{2-[4-({6-[4-(2-Hydroxyethyl)piperazin-1-yl]-2-methylpyrimidin-4-yl}amino)-1H-imidazol-1-yl]ethyl}phenol] | – | – | – | –
13 | 40 ± 2 | 9 ± 1 | 18 ± 1 | 3 ± 1 | 127 to 130 | 8600 | 11700 | 12600 | COC(=O)CN1CCN(c2cc(Nc3cn(CCc4cccc(O)c4)cn3)nc(C)n2)CC1 [4k, Methyl{4-[6-({1-[2-(3-hydroxyphenyl)ethyl]-1H-imidazol-4-yl}amino)-2-methylpyrimidin-4-yl]piperazin-1-yl}acetate] | – | – | more than 2 fold | –
14 | 93 ± 19 | 10 ± 0.4 | 20 ± 0.8 | 3 ± 1 | 150 to 155 | – | – | – | Cc1nc(Nc2cn(CCc3cccc(O)c3)cn2)cc(N2CCN(CCO)CC2)n1 [4h, 3-{2-[4-({6-[4-(2-Hydroxyethyl)piperazin-1-yl]-2-methylpyrimidin-4-yl}amino)-1H-imidazol-1-yl]ethyl}phenol] | – | – | – | –
